Bridge positions count the residues as written; N and C are the ends. Square brackets hold non-standard residues; d marks the D form. Peptide text beside a SMILES is read from it. * marks the point of attachment. Octanoyl = CCCCCCCC(=O)*; Dab = NCC[C@H](N)C(=O)O; Abu = CC[C@H](N)C(=O)O
Key:
P. aeruginosa CCUG51971 = assay: MIC by E-strips on Mueller-Hinton agar with or without NAB7061 (4 µg/ml); assay type: cell-based, Pseudomonas aeruginosa
Protocol: (§1) MICs were determined by using E-strips (Biodisk Ltd., Solna, Sweden) according to the manufacturer's instructions.
(§2) The strains originated from ATCC (11 strains), CCUG (11 strains), and NCTC (The National Collection of Type Cultures, Colindale, U.K.; 2 strains). Eight strains (the F-strains) were purchased from Mobidiag Ltd., Helsinki, Finland.

P. aeruginosa ATCC27853 = assay: as above; assay type: cell-based, Pseudomonas aeruginosa
Protocol: as §1, §2

P. aeruginosa F58 = assay: as above; assay type: cell-based, Pseudomonas aeruginosa
Protocol: as §1, §2

E. coli IH3080 (K1:O18) = assay: Experimental E. coli peritonitis model in mice; assay type: in vivo; details: peritoneal fluid; 5 mg/kg body weight subcutaneous at 1 h; […] after the treatment
Protocol: A suspension of E. coli IH3080 (K1:O18) in saline (0.9% NaCl) was prepared from an overnight culture on a blood agar plate (Statens Serum Institut, Copenhagen, Denmark). All mice (female NMR1 from Harlan Scandinavia, Aller⌀d, Denmark; weight, 25-30 g) were inoculated intraperitoneally with 0.5 ml of the suspension containing 0.96 x 10^6 CFU per ml in the lateral lower quadrant of the abdomen. At 1 h, the CFU count was determined from three mice and the remaining mice (four mice per group) were treated with a subcutaneous injection of 0.2 ml of erythromycin solution in saline (corresponding to 5 mg/kg body weight) or NAB7061 solution in saline (corresponding to 5 mg/kg body weight), or both erythromycin and NAB7061 (corresponding to 5 mg/kg body weight of both drugs; given at two separate sites). Control group received two 0.2 ml injections of saline. At 4.5 h postinfection, all mice were anaesthetized with CO2 and sacrificed. Sterile saline (2 ml) was injected intraperitoneally and the abdomen was gently massaged before it was opened and the fluid sampled. Appropriate dilutions of the fluid were plated on blood agar plates, the plates were incubated overnight, and the colonies were counted.

[1] = test system: three strains of A. baumannii; assay: E-strip MIC, summary over A. baumannii strains of Example 8; assay type: cell-based, Acinetobacter baumannii; details: NAB7061 4 µg/ml
Protocol: as §1, §2

K. pneumoniae CCUG45421 = assay: MIC by E-strips on Mueller-Hinton agar with or without NAB7061 (4 µg/ml); assay type: cell-based, Klebsiella pneumoniae
Protocol: as §1, §2

K. pneumoniae F145 = assay: as above; assay type: cell-based, Klebsiella pneumoniae
Protocol: as §1, §2

K. pneumoniae F136 = assay: as above; assay type: cell-based, Klebsiella pneumoniae
Protocol: as §1, §2

K. pneumoniae F144 = assay: as above; assay type: cell-based, Klebsiella pneumoniae
Protocol: as §1, §2

E. cloacae F230 = assay: as above; assay type: cell-based, Enterobacter cloacae
Protocol: as §1, §2

E. cloacae CCUG52947 = assay: as above; assay type: cell-based, Enterobacter cloacae
Protocol: as §1, §2

E. cloacae F232 = assay: as above; assay type: cell-based, Enterobacter cloacae
Protocol: as §1, §2

E. coli CCUG41425 = assay: as above; assay type: cell-based, Escherichia coli
Protocol: as §1, §2

E. coli CCUG41422 = assay: as above; assay type: cell-based, Escherichia coli
Protocol: as §1, §2

E. cloacae ATCC23355 = assay: Growth inhibition around wells on LB agar plates; assay type: cell-based, Enterobacter cloacae; details: growth inhibition area around well
Protocol: (§3) From an overnight-grown culture of IH3080 on LB agar, a suspension of approx. 10^8 cells/ml was prepared in 0.9% NaCl. Aliquots of this suspension were then pipetted on the agar plates and the plates were gently shaken to spread the suspension evenly on the entire surface of the plate. Thereafter, the unabsorbed part of the suspension was removed by using a Pasteur pipette. After the surface had dried, small wells (diameter, 2 mm) were drilled on the plates (five wells per plate) by using a sterile sharp-edged narrow metal tube, single-use pipette tip, and vacuum suction. Samples (4 µl and 10 µl) of the peptide solution in 0.9% NaCl (at concentrations of 1 µg/ml and 0.1 µg/ml) were then pipetted to the wells and the sample fluids were allowed to absorb. Controls included 0.9% NaCl solution without the compound to be tested. The plates were then incubated for 18 h at 37°C whereafter the diameters of growth inhibition zones around each well were measured; the diameter of the well itself was […]. Finally, the diameters were converted to surface areas of growth inhibition (in square mm).
(§4) The susceptibility of eleven Gram-negative bacterial strains (nine different species) to NAB734 and polymyxin B was compared by using the susceptibility determination method described in Example 2. […]

S. aureus ATCC 25923 = assay: Growth inhibition around wells on LB agar plates; assay type: cell-based, Staphylococcus aureus; details: growth inhibition area around well
Protocol: as §3, §4

CCCCCCCC(=O)N[C@H](C(=O)N[C@@H](CC)C(=O)N[C@H]1CCNC(=O)[C@H]([C@@H](C)O)NC(=O)[C@H](CCN)NC(=O)[C@H](CCN)NC(=O)[C@H](CC(C)C)NC(=O)[C@@H](Cc2ccccc2)NC(=O)[C@H](CCN)NC1=O)[C@@H](C)O [NAB 7061, OA-Thr-Abu-cy[Dab-Dab-DPhe-Leu-Dab-Dab-Thr-]] (Octanoyl-T[Abu][Dab][Dab][dF]L[Dab][Dab]T; lactam 3-C)
MIC (µg/ml) of rifampin in the presence of 4 µg/ml of NAB 7061 (P. aeruginosa CCUG51971): >32 µg/mL
Sensitization factor to clarithromycin (P. aeruginosa CCUG51971; 4 µg/ml of NAB 7061): <2
Sensitization factor to rifampin (P. aeruginosa CCUG51971; 4 µg/ml of NAB 7061): <2
MIC (µg/ml) of rifampin in the presence of 4 µg/ml of NAB 7061 (P. aeruginosa F58): >32 µg/mL
Sensitization factor to clarithromycin (P. aeruginosa F58; 4 µg/ml of NAB 7061): <2
Sensitization factor to rifampin (P. aeruginosa F58; 4 µg/ml of NAB 7061): <2
CFU counts (per ml) at 4.5 h postinfection (E. coli IH3080 (K1:O18)): 1.1 (± 0.6) x 10^6 per ml
resulting MIC values to clarithromycin [1]: ≤ 0.5 µg/mL
resulting MIC values to rifampin [1]: ≤ 0.125 µg/mL

Polymyxin B
Antibacterial activity 4 µg (E. cloacae ATCC23355; 4 µg): 95 square millimeters
Antibacterial activity 10 µg (E. cloacae ATCC23355; 10 µg): 143 square millimeters
Antibacterial activity 4 µg (S. aureus ATCC 25923; 4 µg): 0 square millimeters
Antibacterial activity 10 µg (S. aureus ATCC 25923; 10 µg): 0 square millimeters

From patent publication EP2057185B1, “POLYMYXIN DERIVATIVES AND USES THEREOF” (Northern Antibiotics Oy, priority 2006, dated 2008)
